Laboratory results: ChEMBL document CHEMBL1155755, “Microbial transformation of pyrethrosin” (J Nat Prod, 2001)
In brackets after ≈: the same amount, converted by molar mass.

Key:
SK-MEL = assay: Cytotoxicity against human SK-MEL cells; type: functional, cell-based
SK-OV-3 = assay: Cytotoxicity against human SKOV3 cells; type: functional, cell-based
KB = assay: Cytotoxicity against human KB cells; type: functional, cell-based
Plasmodium falciparum [1] = assay: Antiplasmodial activity against Plasmodium falciparum D6; type: functional, organism-based
Cryptococcus neoformans = assay: Antifungal activity against Cryptococcus neoformans; type: functional, organism-based
Plasmodium falciparum [2] = assay: Antiplasmodial activity against chloroquine-resistant Plasmodium falciparum W2; type: functional, organism-based
Candida albicans = assay: Antifungal activity against Candida albicans; type: functional, organism-based

Row | SMILES | IC50 (SK-MEL) [µg/mL] | IC50 (Plasmodium falciparum [1]) [µg/mL] | IC50 (Cryptococcus neoformans) [µg/mL] | IC50 (Candida albicans) [µg/mL] | further results
1 | CC1=CC[C@@H](O)[C@]2(C)C[C@@H]3OC(=O)[C@H](C)[C@H]3[C@H](O)[C@@H]12 | 7.5 (≈ 28.2 µM) | – | – | – | –
2 | C=C1CC[C@@H](O)[C@]2(C)C[C@@H]3OC(=O)[C@H](C)[C@H]3[C@H](OC(C)=O)[C@@H]12 | – | – | – | – | IC50 (SK-OV-3): 8 µg/mL (≈ 25.9 µM); IC50 (KB): 1.1 µg/mL (≈ 3.57 µM)
3 | CC(=O)O[C@H]1[C@H]2[C@H](C[C@]3(C)[C@@H]1[C@](C)(O)CC[C@H]3OC(C)=O)OC(=O)[C@@H]2C | – | 0.32 (≈ 0.869 µM) | 25 (≈ 67.9 µM) | – | IC50 (Plasmodium falciparum [2]): 0.38 µg/mL (≈ 1.03 µM)
4 | CC(=O)O[C@H]1[C@H]2[C@H](C[C@@]3(C)[C@H](O)CC[C@@](C)(O)[C@H]13)OC(=O)[C@@H]2C | – | 0.88 (≈ 2.7 µM) | – | 10 (≈ 30.6 µM) | –
5 | C=C1CC[C@@H](O)[C@]2(C)C[C@@H]3OC(=O)[C@H](C)[C@H]3[C@H](O)[C@@H]12 | – | – | 35 (≈ 131 µM) | – | –
6 | C=C1C(=O)O[C@H]2C[C@@]3(C)O[C@@H]3CC/C(C)=C/[C@@H](OC(C)=O)[C@H]12 [PYRETHROSIN] | 4.2 (≈ 13.7 µM) | – | – | 30 (≈ 97.9 µM) | –
